Measured values published in patent US6861524B2, “Acyl and sulfonyl derivatives of 6,9-disubstituted 2-(trans-1,4-diaminocyclohexyl)-purines and their use as antiproliferative agents” (Aventis Pharmaceuticals Inc., priority 2000, dated 2005).
Where a name gives a salt, the structure may show the parent alone. Read-outs that look alike come from different tables or passages of the source. One block for each compound: values may come before it.

How the values were obtained:
[1] = test system: PC12 cells, or rat sympathetic neurons; conditions: Park et al. 1997, cited from earlier work; for concentration giving maximal protection from death: camptothecin-treated PC12 cells or rat sympathetic neurons; for cell death at day 6: camptothecin-treated neuronal cells
cortical neurons = conditions: Park et al. 1997; cited from earlier work
cdk1/cyclin B = cdk1/cyclin B (Homo sapiens, UniProt P06493); assay: Cyclin-dependent kinase assay, cdk1/cyclin B (Histone H1 substrate)
Sequence of cdk1/cyclin B (P06493 whole entry): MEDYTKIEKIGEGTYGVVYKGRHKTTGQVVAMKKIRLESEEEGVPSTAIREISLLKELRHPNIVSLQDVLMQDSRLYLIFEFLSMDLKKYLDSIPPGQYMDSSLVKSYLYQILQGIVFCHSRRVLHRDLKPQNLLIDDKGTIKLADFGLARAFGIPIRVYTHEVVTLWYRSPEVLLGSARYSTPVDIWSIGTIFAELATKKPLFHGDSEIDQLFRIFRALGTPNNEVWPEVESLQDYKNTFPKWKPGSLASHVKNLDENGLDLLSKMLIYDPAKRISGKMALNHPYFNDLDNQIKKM
Sequence of cdk1/cyclin B (P14635 whole entry partner): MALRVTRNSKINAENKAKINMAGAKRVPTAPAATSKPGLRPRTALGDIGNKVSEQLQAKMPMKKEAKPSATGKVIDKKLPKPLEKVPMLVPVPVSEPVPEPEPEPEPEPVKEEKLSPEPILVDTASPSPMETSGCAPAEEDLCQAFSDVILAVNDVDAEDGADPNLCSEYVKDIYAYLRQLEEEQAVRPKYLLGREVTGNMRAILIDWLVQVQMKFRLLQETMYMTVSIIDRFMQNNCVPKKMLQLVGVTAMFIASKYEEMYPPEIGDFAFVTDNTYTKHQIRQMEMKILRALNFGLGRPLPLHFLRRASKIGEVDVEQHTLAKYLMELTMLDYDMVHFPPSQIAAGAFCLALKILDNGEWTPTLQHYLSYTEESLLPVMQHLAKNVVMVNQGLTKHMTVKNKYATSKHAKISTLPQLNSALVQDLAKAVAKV

cdk4/cyclin D1 = cdk4/cyclin D1 (Homo sapiens, UniProt P11802); assay: Cyclin-dependent kinase assay, cdk4/cyclin D1 (GST-pRb substrate); assay type: biochemical; conditions: inhibition of cyclin D1/CDK 4 enzyme activity
Sequence of cdk4/cyclin D1 (P11802 whole entry): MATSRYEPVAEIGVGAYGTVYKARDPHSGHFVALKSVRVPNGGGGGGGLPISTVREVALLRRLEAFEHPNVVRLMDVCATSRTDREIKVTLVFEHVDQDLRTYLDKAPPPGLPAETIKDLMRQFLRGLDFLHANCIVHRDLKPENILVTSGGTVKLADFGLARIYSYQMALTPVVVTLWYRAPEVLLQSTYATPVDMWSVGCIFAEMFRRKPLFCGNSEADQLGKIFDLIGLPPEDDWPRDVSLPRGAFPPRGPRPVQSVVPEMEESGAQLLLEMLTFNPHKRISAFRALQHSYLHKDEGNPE
Sequence of cdk4/cyclin D1 (P24385 whole entry partner): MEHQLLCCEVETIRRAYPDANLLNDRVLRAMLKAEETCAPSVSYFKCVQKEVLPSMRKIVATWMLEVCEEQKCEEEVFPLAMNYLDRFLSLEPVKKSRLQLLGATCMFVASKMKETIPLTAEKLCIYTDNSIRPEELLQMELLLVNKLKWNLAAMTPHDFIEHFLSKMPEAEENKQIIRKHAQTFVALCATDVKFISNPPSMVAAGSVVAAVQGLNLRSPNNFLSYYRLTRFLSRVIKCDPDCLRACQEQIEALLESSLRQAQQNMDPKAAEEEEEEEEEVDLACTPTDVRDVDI

PC-3 = assay: In vitro proliferation assay (MTT), PC-3; assay type: cell-based, human
Experimental: (§1) The proliferation of tumor cells can be measured using a tetrazolium salt-based assay known as the MTT (3-[4,5-Dimethylthiazol-2-yl]-2,5-diphenyltetrazolium bromide) assay. […] For the assay, the cell lines are plated onto 96 well plates at 1000 to 2500 cells/well (depending on the properties of the individual cell lines), left to attach and recover overnight. […] After 3 days, the cells are incubated with MTT dye (3-[4,5-Dimethylthiazol-2-yl]-2,5-diphenyltetrazolium bromide, Sigma #M5655, 10 mg/ml in Hank's Buffered Saline) to estimate the amount of live cells remaining vs. concentration for the test compounds. […] The MTT and culture medium is then removed from the cultures and 200 μl of DMSO is added to solubilize the dye from the cell layer. The absorbance at 570 nm is determined for each culture using a Spectramax plate reader (Molecular Devices).
(§2) IC50s were determined from the raw data from either the MTT or SRB assays.
(§3) All of the cell lines were obtained from American Type Tissue Collection, with the ATCC accession number in parentheticals. MCF-7 and MDA-MB-231 cells were grown in improved minimum essential medium (Biofluids) without phenol red, supplemented with 5% fetal bovine serum, 0.01 mg/ml gentamicin and 3 mM L-glutamine.

cdk2/cyclin E = cdk2/cyclin E (Homo sapiens, UniProt P24941); assay: Cyclin-dependent kinase assay, cdk2/cyclin E (GST-pRb substrate); conditions: read-out: CDK2 IC50; inhibition of cyclin E/CDK 2 enzyme activity
MDA-MB-435 = assay: In vitro proliferation assay (MTT), MDA-MB-435; assay type: cell-based, human; conditions: mean (SD, n) where given, read-out: MB-435 Breast (IC50 μM)
Experimental: as §1, §2, §3

[2] = Red blood cell binding (RBC to plasma ratio), human whole blood; assay type: in vitro ADME; conditions: 30 minutes at 37° C., nominal 500 ng/ml
Experimental: (§4) Compounds, including one positive control, are assessed for red blood cell (RBC) uptake, using a modified procedure based on the protocol reported in Sun, J. X. S., et al. High-performance liquid chromatographic analysis, plasma protein binding and red blood cell partitioning of phenprobamate. Biopharmaceutics and Drug Disposition, 8 (1987) 341-351.
(§5) Briefly, RBC uptake is evaluated by comparison of the levels in spiked plasma (n=3) and plasma isolated from spiked whole blood (n=3). Compounds are incubated with human and mouse whole blood, respectively, for 30 minutes at 37° C. using a nominal concentration of 500 ng/ml. Following centrifugation, the plasma is removed and submitted for analysis. Each compound is also spiked into blank plasma at a nominal concentration of 500 ng/ml, and submitted for analysis. Levels in the two plasma samples (Cp′ and Cp in the equation below) and the blood hematocrit are used to determine the red blood cell to plasma ratio (Crbc/Cp). [formula] In equation 1, Cp′ is the level of drug in the spiked “blank” plasma, Cp is the level of drug in the plasma of spiked whole blood, and H is the hematocrit. The hematocrit values are determined as 0.4 for human whole blood and 0.41 for mouse whole blood. The samples are analyzed with ESI LC/MS, using positive ion detection with an internal standard.
(§6) The red blood cell to plasma ratio is determined for each compound using equation 1. Tables 6 and 7 summarize the respective mean Crbc/Cp values and standard deviations for mouse and human whole blood, respectively, in descending order based on the red blood cell to plasma ratio, where “*” denotes Positive Control, and “ND” denotes Not Determined. MDL 108552 is included as a positive control for red blood cell uptake.

[3] = Plasma pharmacokinetics in mice after single intravenous cassette doses; conditions: for Mean Conc. in plasma: mice
[4] = Red blood cell binding (RBC to plasma ratio), mouse whole blood; assay type: in vitro ADME; conditions: 30 minutes at 37° C., nominal 500 ng/ml, hematocrit 0.41
Experimental: as §4, §5, §6

herpes simplex virus = conditions: Schang et al. 1998; cited from earlier work
HL-60 human leukemia = HL-60 human leukemia xenograft in nude mice; assay type: in vivo; conditions: Table 5; 1 mg/kg ip q1d 5x/wk; control 8341 ± 5355
Experimental: Antitumor efficacy is assessed using two subcutaneous human tumor xenograft models. The studies are performed using conventional assay techniques. Briefly, HL-60 (leukemia, 5×10^5 cells) and PC-3 (prostate, 5×10^6 cells) tumor cells are injected subcutaneously into nude mice (Cr1-CD1-Br-nu, Charles River Laboratory, Wilmington, Mass.). Dosing with compounds began when tumors reached 50 to 100 mm^3. The dose route/schedule for the test compounds is ip/q1d (5×/wk). The test doses are set based on the maximum tolerated dose (MTD). […] The test doses for the efficacy studies are set at ⅓rd the MTD (low dose) and the MTD (high dose). The results are shown in Tables 4 and 5 (HL-60, leukemia) (PC-3, prostate cancer). The length of the treatment phase is dependent on the tumor growth rate for the two models. This treatment phase is typically about 3 weeks for the HL-60 model and about 5 weeks for the PC-3 model. […] Dosing with flavopiridol is for the same time frame as for the experimental compounds in both xenograft models. Tumor volume (twice weekly) and body weights (once weekly) are monitored throughout the course of the treatment phase of the experiment. Tumor sizes are measured by external caliper measurements of protruding tumor. Volumes are calculated using the following formula: volume=½ (a×b2), where b is the smaller of two perpendicular diameters.

SMC = conditions: in vitro and in vivo; Ruef et al. 1999; cited from earlier work

Compound: Cn1cnc2nc(NCCO)nc(NCc3ccccc3)c21 [iso-olomoucine]
prevention of cell death of camptothecin-treated neuronal cells ([1]; PC12 cells / sympathetic neurons): failed to prevent the cell death | prevention of cell death of camptothecin-treated neuronal cells (cortical neurons): failed to prevent the cell death

Compound: trans-3-{4-[2-(4-Amino-cyclohexylamino)-9-cyclopentyl-9H-purin-6-ylamino]-piperidine-1-sulfonyl}-benzoic acid methyl ester dihydrochloride [Compound 135]
IC50 (cdk1/cyclin B; read-out: CDK1 IC50, inhibition of cyclin B/CDK 1 enzyme activity): 80 nM | IC50 (cdk4/cyclin D1): 62 nM | IC50 (PC-3; MTT assay, mean (SD, n) where given, read-out: PC-3 Prostate (IC50 μM)): 4.05 µM | IC50 (cdk2/cyclin E): 4 nM | IC50 (MDA-MB-435): 3.38 µM

IC50 (cdk1/cyclin B): 89 nM | IC50 (cdk4/cyclin D1): 476 nM
Compound: CCCCc1ccc(C(=O)N2CCC(Nc3nc(N[C@H]4CC[C@H](N)CC4)nc4c3ncn4C3CCCC3)CC2)cc1 [Compound 21, trans-1-{4-[2-(4-Amino-cyclohexylamino)-9-cyclopentyl-9H-purin-6-ylamino]-piperidin-1-yl}-1-(4-butyl-phenyl)-methanone]

Compound: Cl.Cl.N[C@H]1CC[C@H](Nc2nc(NC3CCN(C(=O)Oc4ccc(F)cc4)CC3)c3ncn(C4CCCC4)c3n2)CC1 [Compound 87, trans-4-[2-(4-Amino-cyclohexylamino)-9-cyclopentyl-9H-purin-6-ylamino]-piperidine-1-carboxylic acid 4-fluoro-phenyl ester dihydrochloride]
Mean Red Blood Cell to Plasma Ratio [2]: 8.4 | IC50 (PC-3; Homo sapiens, PC-3, read-out: PC-3 Prostate (IC50 μM)): 0.16 µM | Mean Conc. in plasma ([3]; Cassette #3, single 15 mg/kg iv cassette dose (3 mg/kg/compound), 0.083 h): 1171.4 ± 153.4 ng/mL | Mean Conc. in plasma ([3]; Cassette #3, single 15 mg/kg iv cassette dose (3 mg/kg/compound), 0.25 h): 371.9 ± 35.9 ng/mL | Mean Conc. in plasma ([3]; Cassette #3, single 15 mg/kg iv cassette dose (3 mg/kg/compound), 0.5 h): 141.4 ± 9.5 ng/mL | Mean Conc. in plasma ([3]; Cassette #3, single 15 mg/kg iv cassette dose (3 mg/kg/compound), 1 h): 65.0 ± 14.0 ng/mL | Mean Conc. in plasma ([3]; Cassette #3, single 15 mg/kg iv cassette dose (3 mg/kg/compound), 3 h): 19.2 ± 6.0 ng/mL | Mean Conc. in plasma ([3]; Cassette #3, single 15 mg/kg iv cassette dose (3 mg/kg/compound), 6 h): 4.3 ± 0.7 ng/mL | Mean Conc. in plasma ([3]; Cassette #3, single 15 mg/kg iv cassette dose (3 mg/kg/compound), 8 h): 3.2 ± 1.6 ng/mL | Mean Conc. in plasma ([3]; Cassette #3, single 15 mg/kg iv cassette dose (3 mg/kg/compound), 24 h): BLQ^a | Mean Red Blood Cell to Plasma Ratio [4]: 3.4

IC50 (cdk1/cyclin B): 25 nM | IC50 (cdk4/cyclin D1): 683 nM
Compound: CC(C)=CC(=O)N1CCC(Nc2nc(N[C@H]3CC[C@H](N)CC3)nc3c2ncn3C2CCCC2)CC1 [Compound 30, trans 1-{4-[2-(4-Amino-cyclohexylamino)-9-cyclopentyl-9#H!-purin-6-ylamino]-piperidin-1-yl}-3-methyl-but-2-en-1-one dihydrochloride]

IC50 (cdk1/cyclin B): 51 nM | IC50 (cdk4/cyclin D1): 293 nM
Compound: NC1CCC(Nc2nc(NC3CCN(C(=O)[C@@H]4C[C@H]4c4ccccc4)CC3)c3ncn(C4CCCC4)c3n2)CC1 (mixture of isomers) [Compound 43, (±)-trans-1-{4-[2-(4-Amino-cyclohexylamino)-9-cyclopentyl-9H-purin-6-ylamino]-piperidin-1-yl}-1-(2-phenyl-cyclopropyl)-methanone dihydrochloride]

Compound: Cn1cnc2c(NCc3ccccc3)nc(NCCO)nc21 [Olomoucine, 6-(benzylamino)-2-[(2-hydroxyethyl)amino]-9-methylpurine]
replication of herpes simplex virus (herpes simplex virus): inhibited the replication | concentration giving maximal protection from death [1]: 200 µM | cell death at day 6 [1]: approximately 30%

Compound: Cc1ccc(OC(=O)N2CCC(Nc3nc(N[C@H]4CC[C@H](N)CC4)nc4c3ncn4C3CCCC3)CC2)cc1.Cl.Cl [Compound 82, trans-4-[2-(4-Amino-cyclohexylamino)-9-cyclopentyl-9H-purin-6-ylamino]-piperidine-1-carboxylic acid p-tolyl ester dihydrochloride]
Mean Red Blood Cell to Plasma Ratio [2]: 5.8 | Mean Conc. in plasma ([3]; Cassette #4, single 15 mg/kg iv cassette dose (3 mg/kg/compound), 0.083 h): 1458.0 ± 77.4 ng/mL | Mean Conc. in plasma ([3]; Cassette #4, single 15 mg/kg iv cassette dose (3 mg/kg/compound), 0.25 h): 875.3 ± 96.7 ng/mL | Mean Conc. in plasma ([3]; Cassette #4, single 15 mg/kg iv cassette dose (3 mg/kg/compound), 0.5 h): 369.6 ± 40.0 ng/mL | Mean Conc. in plasma ([3]; Cassette #4, single 15 mg/kg iv cassette dose (3 mg/kg/compound), 1 h): 133.7 ± 16.3 ng/mL | Mean Conc. in plasma ([3]; Cassette #4, single 15 mg/kg iv cassette dose (3 mg/kg/compound), 3 h): 37.5 ± 10.7 ng/mL | Mean Conc. in plasma ([3]; Cassette #4, single 15 mg/kg iv cassette dose (3 mg/kg/compound), 6 h): 14.5 ± 3.4 ng/mL | Mean Conc. in plasma ([3]; Cassette #4, single 15 mg/kg iv cassette dose (3 mg/kg/compound), 8 h): 12.3 ± 2.2 ng/mL | Mean Conc. in plasma ([3]; Cassette #4, single 15 mg/kg iv cassette dose (3 mg/kg/compound), 24 h): BLQ | Cls ([3]; mouse plasma, iv Cassette #4, 3 mg/kg/compound (15 mg/kg total dose)): 53.0 mL/min/kg | HL60 Mean Vol. ± SD (HL-60 human leukemia): 5164 ± 5516

Compound: CN1CC[C@H](c2c(O)cc(O)c3c(=O)cc(-c4ccccc4Cl)oc23)[C@H](O)C1 [Flavopiridol]
concentration giving maximal protection from death [1]: 1 µM | cell death at day 6 [1]: approximately 30% | SMC growth (SMC): inhibit SMC growth in vitro and in vivo
